Data taken from publication PMC8161026, “Synthesis and Anticancer Activity Evaluation of 5-[2-Chloro-3-(4-nitrophenyl)-2-propenylidene]-4-thiazolidinones” (Molecules, 2021).
Read-outs that look alike come from different tables or passages of the source.

Key:
NCI-H23 = NCI-H23 (Non-Small Cell Lung Cancer), 48 h, SRB
SK-MEL-2 = assay: cells; conditions: Homo sapiens, SK-MEL-2, 48 h; for CC50: read-out: LC50
SF-295 = assay: NCI DTP 60 cell line screen, SRB; conditions: for GI50 / CC50: Homo sapiens, SF-295, 48 h; for CC50: read-out: LC50; for TGI: SF-295 (CNS Cancer), 48 h, SRB
TK-10 = assay: NCI DTP 60 cell line screen, SRB; conditions: for GI50 / CC50: Homo sapiens, TK-10, 48 h; for CC50: read-out: LC50; for TGI: TK-10 (Renal Cancer), 48 h, SRB
PC-3 = PC-3 (Prostate Cancer), 48 h, SRB
DU-145 = DU-145 (Prostate Cancer), 48 h, SRB
MDA-MB-231/ATCC = assay: NCI DTP 60 cell line screen, SRB; conditions: for GI50 / CC50: Homo sapiens, MDA-MB-231, 48 h; for CC50: read-out: LC50; for TGI: MDA-MB-231/ATCC (Breast Cancer), 48 h, SRB
HCT-116 = assay: cells; conditions: Homo sapiens, HCT-116, 48 h; for CC50: read-out: LC50
A498 = assay: NCI DTP 60 cell line screen, SRB
UACC-62 = assay: NCI DTP 60 cell line screen, SRB; conditions: for GI50 / CC50: Homo sapiens, UACC-62, 48 h; for CC50: read-out: LC50; for TGI: UACC-62 (Melanoma), 48 h, SRB
UO-31 = assay: NCI DTP 60 cell line screen, SRB; conditions: for GI50 / CC50: Homo sapiens, UO-31, 48 h; for CC50: read-out: LC50; for TGI: UO-31 (Renal Cancer), 48 h, SRB
OVCAR-3 = assay: NCI DTP 60 cell line screen, SRB; conditions: for GI50 / CC50: Homo sapiens, OVCAR-3, 48 h; for CC50: read-out: LC50; for TGI: OVCAR-3 (Ovarian Cancer), 48 h, SRB
60 tumor cell lines = assay: NCI60 full panel MG_MID; conditions: for GI50 / CC50: Homo sapiens; for CC50: read-out: 60 lines MG_MID, LC50; for 60 lines MG_MID, TGI: mean over all cell lines
Method: At the first stage of biological activity study, the antitumor activity screening of the selected compounds 2b, 2c, 2f, 2h, and 2j was performed according to the NCI DTP (USA) standard protocol at the concentrations ranging from 10^−4 to 10^−8 M toward 60 tumor cell lines. The percentage of growth was evaluated spectrophotometrically versus controls not treated with test agents after 48 h exposure and using SRB protein assay to estimate cell viability or growth. Dose–response parameters were calculated for each cell line: GI50—molar concentration of the compound that inhibits 50% net cell growth; TGI—molar concentration of the compound leading to the total inhibition; and LC50—molar concentration of the compound leading to 50% net cell death. Furthermore, mean graph midpoints (MG_MID) were calculated for each of the parameters, giving an average activity parameter over all cell lines for the tested compound. For the MG_MID calculation, insensitive cell lines were included with the highest concentration tested.
Primary anticancer assay was performed on a panel of approximately sixty human tumor cell lines derived from nine neoplastic diseases, in accordance with the protocol of the Drug Evaluation Branch, National Cancer Institute, Bethesda. Tested compounds were added to the culture at a single concentration (10^−5 M) and the cultures were incubated for 48 h. End point determinations were made with a protein binding dye, sulforhodamine B (SRB). […] The percentage growth was evaluated spectrophotometrically versus controls not treated with test agents.
Dose–response parameters (GI50, TGI, LC50) were calculated for each compound. […] The drug concentration resulting in total growth inhibition (TGI) was calculated from Ti = Tz. The LC50 (concentration of drug resulting in a 50% reduction in the measured protein at the end of the drug treatment as compared to that at the beginning) indicating a net loss of cells following treatment was calculated from [(Ti − Tz)/Tz] × 100 = −50 (2). Values were calculated for each of these parameters if the level of activity was reached; however, if the effect was not reached or was excessive, the value for that parameter was expressed as more or less than the maximum or minimum concentration tested.

HCT-15 = assay: NCI DTP 60 cell line screen, SRB; conditions: for TGI: HCT-15 (Colon Cancer), 48 h, SRB; for GI50 / CC50: Homo sapiens, HCT-15, 48 h; for CC50: read-out: LC50
NCI-H460 = assay: cells; conditions: Homo sapiens, NCI-H460, 48 h; for CC50: read-out: LC50
CCRF-CEM = assay: NCI DTP 60 cell line screen, SRB; conditions: 48 h
SK-OV-3 = assay: NCI DTP 60 cell line screen, SRB; conditions: for GI50 / CC50: Homo sapiens, SK-OV-3, 48 h; for CC50: read-out: LC50; for TGI: SK-OV-3 (Ovarian Cancer), 48 h, SRB
KM12 = KM12 (Colon Cancer), 48 h, SRB
SK-MEL-5 = assay: NCI DTP 60 cell line screen, SRB; conditions: for GI50 / CC50: Homo sapiens, SK-MEL-5, 48 h; for CC50: read-out: LC50; for TGI: SK-MEL-5 (Melanoma), 48 h, SRB
OVCAR-5 = assay: NCI DTP 60 cell line screen, SRB
MOLT-4 = conditions: for TGI: MOLT-4 (Leukemia), 48 h, SRB; for TI (Therapeutic Index): GI50 (normal blood lymphocyte)/GI50 (MOLT-4)
HOP-92 = assay: NCI DTP 60 cell line screen, SRB; conditions: for TGI: HOP-92 (Non-Small Cell Lung Cancer), 48 h, SRB; for GI50 / CC50: Homo sapiens, HOP-92, 48 h; for CC50: read-out: LC50
[1] = read-out: 60 lines MG_MID, GI50

O=C1/C(=C/C(Cl)=C/c2ccc([N+](=O)[O-])cc2)SC(=S)N1/N=C\C(Cl)=C\c1ccc([N+](=O)[O-])cc1 [Compound 2c, 5-[(Z,2Z)-2-Chloro-3-(4-nitrophenyl)-2-propenylidene]-3-[(Z,2Z)-2-chloro-3-(4-nitrophenyl)-2-propenylideneamino]-2-thioxo-4-thiazolidinone]
TGI (NCI-H23): 31.6 µM
GI50 (SK-MEL-2): 19 µM
CC50 (SK-MEL-2): 69.8 µM
GI50 (SF-295): 18 µM
CC50 (SF-295): 77.1 µM
TGI (SF-295): 37.3 µM
GI50 (TK-10): 28 µM
CC50 (TK-10): > 100 µM
TGI (TK-10): 69.6 µM
TGI (PC-3): 45.8 µM
TGI (DU-145): 52.8 µM
GI50 (MDA-MB-231/ATCC): 10 µM
CC50 (MDA-MB-231/ATCC): > 100 µM
TGI (MDA-MB-231/ATCC): 35.4 µM
GI50 (HCT-116): 2.73 µM
CC50 (HCT-116): 23.3 µM
TGI (A498; A498 (Renal Cancer), 48 h, SRB): 29.6 µM
GI50 (A498; Homo sapiens, A498, 48 h): 13 µM
CC50 (A498; Homo sapiens, A498, 48 h, read-out: LC50): 67.3 µM
GI50 (UACC-62): 13.6 µM
CC50 (UACC-62): 58 µM
TGI (UACC-62): 28.1 µM
GI50 (UO-31): 17.5 µM
CC50 (UO-31): 59.1 µM
TGI (UO-31): 32.2 µM
GI50 (OVCAR-3): 0.821 µM
CC50 (OVCAR-3): 41.1 µM
TGI (OVCAR-3): 12.7 µM
GI50 (60 tumor cell lines; [1]): 18 µM
CC50 (60 tumor cell lines): 81.7 µM
60 lines MG_MID, TGI (60 tumor cell lines): 43.1 µM
TGI (HCT-15): 33.0 µM
GI50 (HCT-15): 16.6 µM
CC50 (HCT-15): 65.7 µM
GI50 (NCI-H460): 15 µM
CC50 (NCI-H460): 69.5 µM
TGI (CCRF-CEM; CCRF-CEM (Leukemia), SRB): 35.3 µM
GI50 (CCRF-CEM; Homo sapiens, CCRF-CEM): 4.42 µM
CC50 (CCRF-CEM; Homo sapiens, CCRF-CEM, read-out: LC50): > 100 µM
GI50 (SK-OV-3): 59.6 µM
CC50 (SK-OV-3): > 100 µM
TGI (SK-OV-3): > 100 µM
TGI (KM12): 59.1 µM
GI50 (SK-MEL-5): 19.4 µM
CC50 (SK-MEL-5): 75.6 µM
TGI (SK-MEL-5): 38.3 µM
GI50 (OVCAR-5; Homo sapiens, OVCAR-5, 48 h): 15.1 µM
CC50 (OVCAR-5; Homo sapiens, OVCAR-5, 48 h, read-out: LC50): 86.6 µM
TGI (OVCAR-5; OVCAR-5 (Ovarian Cancer), 48 h, SRB): 36.2 µM
TGI (MOLT-4): 8.95 µM

O=C1/C(=C/C(Cl)=C/c2ccc([N+](=O)[O-])cc2)SC(=S)N1c1ccc(O)cc1 [Compound 2f, 5-[(Z,2Z)-2-Chloro-3-(4-nitrophenyl)-2-propenylidene]-3-(4-hydroxyphenyl)-2-thioxo-4-thiazolidinone]
TGI (NCI-H23): 3.11 µM
GI50 (SF-295): 2.26 µM
CC50 (SF-295): > 100 µM
TGI (SF-295): 13.8 µM
GI50 (TK-10): 4.87 µM
CC50 (TK-10): > 100 µM
TGI (TK-10): 29.0 µM
TGI (PC-3): 84.8 µM
TGI (DU-145): 5.81 µM
GI50 (MDA-MB-231/ATCC): 2.18 µM
CC50 (MDA-MB-231/ATCC): 92.1 µM
TGI (MDA-MB-231/ATCC): 12.2 µM
GI50 (HCT-116): 1.27 µM
CC50 (HCT-116): 6.92 µM
TGI (HOP-92): 39.4 µM
GI50 (HOP-92): 8.53 µM
CC50 (HOP-92): > 100 µM
GI50 (UACC-62): 1.69 µM
CC50 (UACC-62): 8.78 µM
TGI (UACC-62): 3.85 µM
GI50 (UO-31): 2.08 µM
CC50 (UO-31): > 100 µM
TGI (UO-31): 3.98 µM
GI50 (OVCAR-3): 0.977 µM
CC50 (OVCAR-3): > 100 µM
TGI (OVCAR-3): 41.8 µM
GI50 (60 tumor cell lines; [1]): 2.8 µM
CC50 (60 tumor cell lines): 80.8 µM
60 lines MG_MID, TGI (60 tumor cell lines): 32.3 µM
TGI (HCT-15): > 100 µM
GI50 (HCT-15): 0.409 µM
CC50 (HCT-15): > 100 µM
GI50 (NCI-H460): 0.754 µM
CC50 (NCI-H460): > 100 µM
GI50 (SK-OV-3): 10.2 µM
CC50 (SK-OV-3): > 100 µM
TGI (SK-OV-3): 41.5 µM
TGI (KM12): > 100 µM
GI50 (SK-MEL-5): < 0.01 µM
CC50 (SK-MEL-5): 3.41 µM
TGI (SK-MEL-5): < 0.01 µM
TI (Therapeutic Index) (MOLT-4): >257.07
TGI (MOLT-4): > 100 µM

O=C(O)CCN1C(=O)/C(=C/C(Cl)=C/c2ccc([N+](=O)[O-])cc2)SC1=S [Compound 2h, 3-{5-[(Z,2Z)-2-Chloro-3-(4-nitrophenyl)-2-propenylidene]-4-oxo-2-thioxothiazolidin-3-yl}propanoic acid]
TGI (NCI-H23): 3.22 µM
GI50 (SK-MEL-2): 0.802 µM
CC50 (SK-MEL-2): 65.1 µM
GI50 (SF-295): 3.36 µM
CC50 (SF-295): > 100 µM
TGI (SF-295): 21.6 µM
GI50 (TK-10): 2.33 µM
CC50 (TK-10): 92 µM
TGI (TK-10): 16.9 µM
TGI (PC-3): 13.7 µM
TGI (DU-145): 3.48 µM
GI50 (MDA-MB-231/ATCC): 1.08 µM
CC50 (MDA-MB-231/ATCC): 25.9 µM
TGI (MDA-MB-231/ATCC): 4.86 µM
GI50 (HCT-116): 0.27 µM
CC50 (HCT-116): > 100 µM
TGI (HOP-92): 18.3 µM
GI50 (HOP-92): 4.81 µM
CC50 (HOP-92): 50.7 µM
GI50 (UACC-62): 1.23 µM
CC50 (UACC-62): 7.18 µM
TGI (UACC-62): 2.97 µM
GI50 (UO-31): 0.812 µM
CC50 (UO-31): 6.31 µM
TGI (UO-31): 2.43 µM
GI50 (OVCAR-3): 0.135 µM
CC50 (OVCAR-3): 66.6 µM
TGI (OVCAR-3): 6.05 µM
GI50 (60 tumor cell lines; [1]): 1.57 µM
CC50 (60 tumor cell lines): 65 µM
GI50 (60 tumor cell lines; read-out: GI50 concentration range): 0.01 to 0.02 µM
60 lines MG_MID, TGI (60 tumor cell lines): 13.3 µM
TGI (HCT-15): 2.96 µM
GI50 (HCT-15): 0.23 µM
CC50 (HCT-15): > 100 µM
GI50 (NCI-H460): 0.804 µM
CC50 (NCI-H460): > 100 µM
GI50 (SK-OV-3): 6.83 µM
CC50 (SK-OV-3): 77.6 µM
TGI (SK-OV-3): 27.4 µM
TGI (KM12): 29.5 µM
GI50 (SK-MEL-5): 0.0193 µM
CC50 (SK-MEL-5): 1.88 µM
TGI (SK-MEL-5): 0.0849 µM
TI (Therapeutic Index) (MOLT-4): 3408.75
TGI (MOLT-4): 19.7 µM
